Data as given in paper PMC5371851 (Toxins, 2017).

Legend:
[1] = test system: human gastric epithelial (GES-1) cells
porcine IPEC-1 = settings: pig intestine cell (IPEC-1); cited from earlier work

SMILES	relative potency in reducing cell viability (fold less) [1]	effect on cell viability ([1]; human)	toxicity relative to DON (porcine IPEC-1)	Dm (median-effect dose, IC50 value) [1] [ppm]	EC30 (effective concentration of 30% inhibiting cell viability rate) [1]	EC70 (effective concentration of 70% inhibiting cell viability rate) [1]	m (slope of median-effect curves) [1]	toxicity to GES-1 cells [1]
CC(=O)O[C@@H]1C[C@]2(C)[C@@]3(CO)[C@H](O)C(=O)C(C)=C[C@H]3O[C@H]1[C@@]21CO1 [3-ADON, 3-acetyldeoxynivalenol]	ten-fold	neither D3G nor 3-ADON decreased any cell viability	less toxicity than DON	–	–	–	–	–
CC(=O)OC[C@]12[C@H](O)C(=O)C(C)=C[C@H]1O[C@@H]1[C@H](O)C[C@@]2(C)[C@]12CO2 [15-ADON, 15-acetyldeoxynivalenol]	–	–	–	4.77	1.13	20.05	0.59	–
CC1=C[C@H]2O[C@@H]3[C@H](O[C@@H]4O[C@H](CO)[C@@H](O)[C@H](O)[C@H]4O)C[C@](C)([C@@]2(CO)[C@H](O)C1=O)[C@]31CO1 [D3G, deoxynivalenol-3-glucoside]	–	–	–	–	–	–	–	no toxicity
CC1=C[C@H]2O[C@@H]3[C@H](O)C[C@](C)([C@@]2(CO)[C@H](O)C1=O)[C@]31CO1 [DON, deoxynivalenol]	–	–	–	2.99	0.75	11.99	0.61	–
CC(=O)O[C@@H]1[C@@H](O)[C@H]2O[C@@H]3C=C(C)C(=O)[C@@H](O)[C@]3(CO)[C@]1(C)[C@]21CO1 [FX, Fusarenon-X]	–	–	–	0.85	0.15	4.97	0.48	–
CC1=C[C@H]2O[C@@H]3[C@H](O)[C@@H](O)[C@](C)([C@@]2(CO)[C@H](O)C1=O)[C@]31CO1 [NIV, Nivalenol]	–	–	–	0.58	0.08	4.36	0.42	–
